Assays:
[1] = Individual serum elimination rate and half-life (linear regression per employee); conditions: for Elimination rate / HL (half-life): individual estimate;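 for HL (half-life): half-life in years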
Summary of the method: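 One-compartment, first-order model: for each employee and PFAS, the slope β of log serum concentration versus elapsed days (from clean water supply, over five samplings) gave k = −β and half-life = ln2/k. A positive slope left the half-life undetermined.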

[2] = PFAS levels in serum samples of airport employees (LC/MS/MS)
Summary of the method: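 LC/MS/MS quantification (BEH C18, 5 mM ammonium acetate water:methanol to methanol gradient) after protein precipitation of 25 μL serum with isotopically labeled internal standards, FBS-matrix calibration. Samples stored at −80°C, collected at monthly intervals from September 2018 and run together in a single batch.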

[3] = 1st sampling (September 2018), count 17
[4] = 2nd sampling (October 2018), count 17
[5] = 3rd sampling (November, 2018), count 17
[6] = 4th sampling (December 2018), count 16
[7] = 5th sampling (January 2019), count 16
[8] = first serum samples, all 26 airport employees
[9] = median of first serum samples, all 26 airport employees

## O=C(O)C(F)(F)C(F)(F)C(F)(F)C(F)(F)C(F)(F)F [PFHxA, perfluorohexanoic acid]
[1]; 5-month follow-up, 17 employees
  Individuals without decrement in serum concentration (no individual estimated half-life): 53%
[1]; subject 1, 5 samples
  Elimination rate: 0.2 yearly
  HL (half-life): 4.1 year
[1]; subject 2, 5 samples
  Elimination rate: −0.1 yearly
[1]; subject 3, 5 samples
  Elimination rate: 1.6 yearly
  HL (half-life): 0.4 year
[1]; subject 4, 5 samples
  Elimination rate: −0.6 yearly
[1]; subject 5, 5 samples
  Elimination rate: −1.7 yearly
[1]; subject 6, 4 samples
  Elimination rate: −1.6 yearly
[1]; subject 7, 5 samples
  Elimination rate: 1.5 yearly
  HL (half-life): 0.5 year
[1]; subject 8, 5 samples
  Elimination rate: −0.7 yearly
[1]; subject 9, 5 samples
  Elimination rate: −0.2 yearly
[1]; subject 10, 5 samples
  Elimination rate: 0.4 yearly
  HL (half-life): 1.9 year
[1]; subject 11, 5 samples
  Elimination rate: 2.8 yearly
  HL (half-life): 0.2 year
[1]; subject 12, 5 samples
  Elimination rate: −0.3 yearly
[1]; subject 13, 5 samples
  Elimination rate: −0.7 yearly
[1]; subject 14, 4 samples
  Elimination rate: −0.5 yearly
[1]; subject 15, 5 samples
  Elimination rate: 2.7 yearly
  HL (half-life): 0.3 year
[1]; subject 16, 5 samples
  Elimination rate: 1.1 yearly
  HL (half-life): 0.6 year
[1]; subject 17, 5 samples
  Elimination rate: 2.5 yearly
  HL (half-life): 0.3 year
[2]; [3]
  Serum PFAS level, 25 percentile: 0.24
  Serum PFAS level, 75 percentile: 0.48
  Serum PFAS level, Max: 0.92
  Serum PFAS level, Median: 0.37
  Serum PFAS level, Min: 0.16
[2]; [4]
  Serum PFAS level, 25 percentile: 0.26
  Serum PFAS level, 75 percentile: 0.51
  Serum PFAS level, Max: 1.2
  Serum PFAS level, Median: 0.31
  Serum PFAS level, Min: 0.14
[2]; [5]
  Serum PFAS level, 25 percentile: 0.27
  Serum PFAS level, 75 percentile: 0.56
  Serum PFAS level, Max: 1.4
  Serum PFAS level, Median: 0.34
  Serum PFAS level, Min: 0.13
[2]; [6]
  Serum PFAS level, 25 percentile: 0.22
  Serum PFAS level, 75 percentile: 0.46
  Serum PFAS level, Max: 0.87
  Serum PFAS level, Median: 0.30
  Serum PFAS level, Min: 0.08
[2]; [7]
  Serum PFAS level, 25 percentile: 0.21
  Serum PFAS level, 75 percentile: 0.52
  Serum PFAS level, Max: 1.2
  Serum PFAS level, Median: 0.33
  Serum PFAS level, Min: 0.11
[2]; all 26 airport employees
  Serum level in the first samples, median (range): 0.38 (0.16–1.1) ng/mL
[2]; employees participated in first blood sampling and repeated blood and urine sampling, N=17
  PFAS in first serum sample, median (range): 0.37 (0.16–0.92) ng/mL
[2]; employees participated in first blood sampling only, N=9, 11-14 d after end of exposure
  PFAS in first serum sample, median (range): 0.38 (0.23–1.1) ng/mL
[2]; females (N=7)
  Initial serum PFAS level, max: 0.54 ng/mL
  Initial serum PFAS level, median: 0.24 ng/mL
  Initial serum PFAS level, min: 0.19 ng/mL
[2]; [8]
  Relative composition of PFAS in serum, molar concentration basis: 0.4%
  Relative composition of PFAS in serum, weight basis: 0.3%
[2]; males (N=19)
  Initial serum PFAS level, Max: 1.1 ng/mL
  Initial serum PFAS level, Min: 0.16 ng/mL
  Initial serum PFAS level, median: 0.42 ng/mL
[2]; [9]
  Serum concentration, molar basis: 0.0012
  Serum concentration, weight basis: 0.38
